Measurements reported in PMC11111408, “Concurrent inhibition of oncogenic and wild-type RAS-GTP for cancer therapy” (Nature, 2024).
Several values for one entry are separate records, joined by “and”; a condition that tells them apart may be missing. Equal entries are not always repeated. Each block holds one compound with its values, some of them ahead of it.

What was measured:
A375 cells [1] = test: Cellular ERK phosphorylation (pERK); assay type: cell-based, human; conditions: Homo sapiens, A-375; A375 (BRAF^V600E)
KRAS^G12V [2] = target: T1, KRAS^G12V (Homo sapiens, UniProt P01116+P62937, G12V); test: Biochemical RAS–RAF (BRAF RBD) disruption, TR-FRET; parameters: His6-TEV (N); made in house; host or cells: BL21(DE3) Escherichia coli
From the text: Time-resolved fluorescence resonance energy transfer (TR-FRET) was used as previously described to assess disruption of the interactions between wild-type RAS or the mutant oncogenic RAS proteins and the RAS-binding domain of BRAF, and to assess the induction of interactions between the RAS proteins and CYPA[12].

Capan-1 cells [3] = test: Cellular ERK phosphorylation (pERK); assay type: cell-based; conditions: Homo sapiens; Capan-1 (KRAS^G12V PDAC); (95% CI)
[4] = Oral bioavailability in mice (LC-MS/MS of blood); assay type: in vivo; conditions: mouse, whole blood, read-out: Oral Bioavailability m%F
Capan-1 cells [5] = test: Cell proliferation (CTG); assay type: cell-based; conditions: Homo sapiens; Capan-1, CTG; (95% CI)
Method: (§1) Alternatively, cells were seeded in round-bottom ultra-low attachment 96-well plates, centrifuged at 1,000 rpm for 10 min to pellet the cells, and incubated overnight or up to 72 h to allow for 3D spheroid formation. […] Cell viability was determined by CellTiter-Glo 2.0 reagent (2D CTG) (Promega, G9243) or 3D CellTiter-Glo reagent (3D CTG) (Promega, G9683) according to the manufacturer’s protocols. Luminescence was detected using a SpectraMax M5 Plate Reader (Molecular Devices) of Perkin Elmer Enspire. Luminescence signal was normalized to vehicle-treated wells (normalized signal (%) = (luminescence (treated)/mean luminescence (vehicle)) × 100%). […] Data were plotted as log [inhibitor (M)], and a four-parameter sigmoidal concentration response model was fitted to the data to calculate EC50. […] Pa16C MEK1 mutant cells were evaluated by live-cell counting using Calcein AM and a SpectraMax i3X multi-mode detection platform (Molecular Devices). Growth percentages were calculated by normalizing the treated cell counts to their respective untreated cell counts.

KRAS^G12V [6] = target: T1, KRAS^G12V; test: RAS binding affinity of compound-bound CYPA (Kd2), SPR; parameters: His6-TEV (N); made in house; host or cells: BL21(DE3) Escherichia coli; conditions: steady state, (95% CI)
A375 cells [7] = test: Cell proliferation (CTG); assay type: cell-based, human; conditions: Homo sapiens, A-375; A375, CTG; (95% CI)
Method: as §1

CYPA = target: T2, CYPA (Homo sapiens, UniProt P62937); test: CYPA binding affinity (Kd1), SPR; conditions: steady state, (95% CI)
T2 construct: His6-TEV-AviTag-CYPA (full-length); His6-TEV (N); made in house; host or cells: BL21(DE3) Escherichia coli
Method: The binding affinity of compounds for CYPA (Kd1) was assessed by SPR on a Biacore 8K instrument as previously described.

[8] = test system: Pa16C cells expressing MEK1 mutants; test: Proliferation (Calcein AM) of Pa16C cells expressing MEK1 mutants; assay type: cell-based, human
[9] = test system: KRAS^G12D PDAC cell lines; test: Western blot time course of RAS signalling in KRAS^G12D PDAC cell lines; assay type: cell-based, human; conditions: KRAS^G12D PDAC cells in culture, 2 h to 48 h
Method: Total ERK and vinculin were used as loading controls. […] Source Data
Cells were lysed with MSD Tris Lysis Buffer (MSD, R60TX-2) or a buffer of 1% Triton X-100, 20 mM Tris-HCl, 150 mM NaCl, and 1 mM EDTA, both supplemented with protease and phosphatase inhibitors. Lysates were cleared by centrifugation and quantified by BCA assay (Pierce, 23225). […] Image Studio Lite (Version 5.2.5) and Image Lab (Version 6.1.0 build 7) software were used for data analysis.

EC50 (A375 cells [1]): > 10 µM | EC50 (KRAS^G12V [2]): 4.4 µM | EC50 (Capan-1 cells [3]): 632 nM | bioavailability [4]: 5% | Kd (KRAS^G12V [6]): 6.55 µM | EC50 (A375 cells [7]): 6.41 µM | Kd (CYPA): 862 nM
Compound: CCn1c(-c2cccnc2[C@H](C)OC)c2c3cc(ccc31)-c1cccc(c1)C[C@H](NC(=O)[C@H](C(C)C)N(C)C(=O)[C@H]1CCN(C(C)=O)C1)C(=O)N1CCC[C@H](N1)C(=O)OCC(C)(C)C2 [Compound 1]
EC50 (Capan-1 cells [5]): 965 nM

Compound: C#Cc1c(F)ccc2cc(O)cc(-c3ncc4c(N5CC6CCC(C5)N6)nc(OC[C@@]56CCCN5C[C@H](F)C6)nc4c3F)c12 [MRTX1133, reference compound]
Proliferation of Pa16C cells expressing MEK1 mutant constructs ([8]; MEK1E102-I103del, inhibitor 0.046 nM): 125.8 and 122.1 and 120.54 and 95.05 | Proliferation of Pa16C cells expressing MEK1 mutant constructs ([8]; MEK1E102-I103del, inhibitor 0.412 nM): 113.2 and 113.4 and 113.54 and 82.15 | Proliferation of Pa16C cells expressing MEK1 mutant constructs ([8]; MEK1E102-I103del, inhibitor 1.235 nM): 110 and 114.8 and 110.17 and 83.99 | Proliferation of Pa16C cells expressing MEK1 mutant constructs ([8]; MEK1E102-I103del, inhibitor 3.704 nM): 89.5 and 104.7 and 87.18 and 77.13 | Proliferation of Pa16C cells expressing MEK1 mutant constructs ([8]; MEK1K57N, inhibitor 0.046 nM): 113.3 and 92 and 123.41 and 119.36 | Proliferation of Pa16C cells expressing MEK1 mutant constructs ([8]; MEK1K57N, inhibitor 0.412 nM): 108.9 and 110.1 and 130.35 and 129.87 | Proliferation of Pa16C cells expressing MEK1 mutant constructs ([8]; MEK1K57N, inhibitor 1.235 nM): 119.4 and 130.2 and 127.87 and 133.27 | Proliferation of Pa16C cells expressing MEK1 mutant constructs ([8]; MEK1K57N, inhibitor 3.704 nM): 112.2 and 126.4 and 116.3 and 122.06 | Proliferation of Pa16C cells expressing MEK1 mutant constructs ([8]; MEK1Q56P, inhibitor 0.046 nM): 116.6 and 110 and 105 and 106.72 | Proliferation of Pa16C cells expressing MEK1 mutant constructs ([8]; MEK1Q56P, inhibitor 0.412 nM): 113.89 and 123.5 and 112.2 and 128.92 | Proliferation of Pa16C cells expressing MEK1 mutant constructs ([8]; MEK1Q56P, inhibitor 1.235 nM): 123.05 and 112.4 and 128.9 and 131.08 | Proliferation of Pa16C cells expressing MEK1 mutant constructs ([8]; MEK1Q56P, inhibitor 3.704 nM): 108.45 | Proliferation of Pa16C cells expressing MEK1 mutant constructs ([8]; MEK1S218D/S222D, inhibitor 0.046 nM): 106.52 and 116.35 and 117.97 and 101.1 | Proliferation of Pa16C cells expressing MEK1 mutant constructs ([8]; MEK1S218D/S222D, inhibitor 0.412 nM): 107.39 and 112.33 and 125.31 and 99.77 | Proliferation of Pa16C cells expressing MEK1 mutant constructs ([8]; MEK1S218D/S222D, inhibitor 1.235 nM): 101.82 and 118.84 and 117.94 and 98.18 | Proliferation of Pa16C cells expressing MEK1 mutant constructs ([8]; MEK1S218D/S222D, inhibitor 3.704 nM): 93.55 and 118.16 and 86.21 and 93.79 | Proliferation of Pa16C cells expressing MEK1 mutant constructs ([8]; MEK1WT, inhibitor 0.046 nM): 112.3 and 102.3 and 116.1 and 105.31 and 102.33 | Proliferation of Pa16C cells expressing MEK1 mutant constructs ([8]; MEK1WT, inhibitor 0.412 nM): 119.4 and 93.5 and 109.72 and 103.89 and 97.19 | Proliferation of Pa16C cells expressing MEK1 mutant constructs ([8]; MEK1WT, inhibitor 1.235 nM): 110 and 85.2 and 91.69 and 105.96 and 84.4 | Proliferation of Pa16C cells expressing MEK1 mutant constructs ([8]; MEK1WT, inhibitor 3.704 nM): 88.3 and 70.7 and 61.19 | pERK suppression over time [9]: rebounded by 48 h
